This note sets out measurements from ChEMBL document CHEMBL5120868, “Tuaimenal A, a Meroterpene from the Irish Deep-Sea Soft Coral Duva florida, Displays Inhibition of the SARS-CoV-2 3CLpro Enzyme” (J Nat Prod, 2022).

Assay [1] concerns the target Replicase polyprotein 1ab (Severe acute respiratory syndrome coronavirus 2) (UniProt P0DTD1). Briefly: Inhibition of recombinant SARS-CoV-2 3CLpro expressed in Escherichia coli BL21 at […] using LGSAVLQ-rhodamine 110-dp as fluorogenic substrate preincubated for 15 mins followed by substrate addition by spectrophotometry analysis relative to control.
For assay [2] the target is unchanged. The experiment in a line: Inhibition of recombinant SARS-CoV-2 3CLpro expressed in Escherichia coli BL21 at 20 uM using LGSAVLQ-rhodamine 110-dp as fluorogenic substrate preincubated for 15 mins followed by substrate addition by spectrophotometry analysis relative to control.
The target of assay [3] is Replicase polyprotein 1ab (Severe acute respiratory syndrome coronavirus 2, UniProt P0DTD1). Briefly: Inhibition of recombinant SARS-CoV-2 3CLpro expressed in Escherichia coli BL21 using LGSAVLQ-rhodamine 110-dp as fluorogenic substrate preincubated for 15 mins followed by substrate addition by spectrophotometry analysis.

The structures appear in SMILES notation.

For the compound `NCCc1ccc(S(=O)(=O)F)cc1`, the inhibition in assay [1] worked out at 100%.

Consider `CC(C)=CCC/C(C)=C/CC[C@]1(C)C=Cc2c(C=O)c(O)c(C)c(O)c2O1`, for which, in assay [2], the inhibition was 40%. The IC50 in assay [3] came out at 21 µM.

The term inhibition denotes the drop in the measured response relative to a control, in per cent. The term IC50 denotes the concentration at which inhibition is half-maximal.
